In paper PMC6271530, “Design and Optimisation of Bioactive Cyclic Peptides: Generation of a Down-Regulator of TNF Secretion” (Molecules, 2014):
Entries after “also recorded” stand apart in the source; their conditions may differ.

Columns and labels:
[1] = system: CTB-stimulated J774A.1 cells; assay type: cell-based, murine
[2] = system: LPS-stimulated J774A.1 cells; assay: TNF secretion by LPS-stimulated J774A.1 cells; assay type: cell-based, murine; conditions: for Change in level of secretion of TNF into the supernatant: LPS-stimulated J774A.1 cells, overnight exposure to cyclic peptide, TNF by sandwich ELISA, very high levels of TNF generated
[3] = system: cytokine activated T-cells (Tck) co-cultured with monocytes; assay: TNF secretion in T cell/monocyte co-culture (cognate assay); assay type: cell-based, human
Protocol: (§1) A methodology described by Brennan et al. was employed. Peripheral blood lymphocytes (>95%) are enriched by Centrifugal Elutriation from plateletphoresis blood cones. CD45RO^+ Tcells (>98% purity) isolated by negative selection (Miltenyi, Bisley, UK) are re-suspended to a density of 1 × 10^6 cells/mL in RPMI 1640 containing 10% heat-inactivated AB^+ Human Serum. Cytokines are added to the cells at the following concentrations, hIL-2 @25 ng/mL, hIL-6 @100 ng/mL and hTNFα @25 ng/mL, all purchased from Peprotech UK (London, UK). The cells are incubated at 37 °C, 5% CO2 for 8 d after which they are pelleted twice at 1500 rpm for 5 min, counted and then used in a cognate experiment.
(§2) A methodology described by Brennan et al. is employed as follows. Elutriation-enriched (>95%) autologous monocytes are cultured at 1 × 10^6 cells/mL (100 microlitres) in RPMI 1640 containing 5% heat-inactivated FCS, in a 96-well, round-bottomed culture plate. After adjusting the cell number, cytokine activated T-cells (Tck) are added to the monocytes at a 5:1 ratio, the peptides are then added into the appropriate wells, with a final volume of 200 μL/well. Cells are co-cultured at 37 °C, 5% CO2 for 18 h after which the supernatants are removed and assayed for cytokine production by ELISA.

[4] = system: LPS-stimulated J774A.1 cells; assay: IL-6 secretion by LPS-stimulated J774A.1 cells; assay type: cell-based, murine; conditions: different concentrations, formulated with cyclodextrin in the absence of transcutol
[5] = system: cytokine activated T-cells (Tck) co-cultured with monocytes; assay: IL-6 secretion in the cognate assay; assay type: cell-based, human; conditions: cognate model; 10 and 1 μg/mL peptide, relative to corresponding vehicle controls; formulated with cyclodextrin in the absence of transcutol
Protocol: as §1, §2

[6] = system: cells of the cytokine secretion experiments (replicates of each group); assay: MTT viability assay; assay type: cell-based; conditions: MTT 4 h at 37 °C, read at 620 nm
Protocol: After removal of the supernatants 100 μL of RPMI 1640 is added to each well of the plate. 10 μL of MTT dye (stock 5 mg/mL) is added to each well and incubated for 4 h at 37 °C 5% CO2, the MTT crystals are dissolved with SDS after which the plates are read at 620 nm.

[7] = system: cytokine activated T-cells (Tck) co-cultured with monocytes; assay: IL-1 levels in the cognate model; assay type: cell-based, human
Protocol: as §1, §2

[8] = system: cytokine activated T-cells (Tck) co-cultured with monocytes; assay: IL-10 levels in the cognate model; assay type: cell-based, human
Protocol: as §1, §2

[9] = Light scattering / homogeneity of the peptide preparation in aqueous medium; assay type: physicochemical; conditions: peptide dissolved in HFIP or transcutol in the presence of β-hydroxypropyl cyclodextrin, then aqueous medium; all levels of cyclodextrin employed
Text: In order to avoid problems with aggregation, which, it was feared, may affect the long-term stability of the product, a number of methodologies were employed to disperse the peptide prior to introduction into aqueous medium. Dissolution in HFIP, followed by drying down and addition of water worked reasonably well, as did dissolving in transcutol at high concentration, then adding to water. […] Detailed methodology is given in the Experimental section.

lymphocytes = assay: TNF secretion by lymphocytes; assay type: cell-based; conditions: evidence to be presented separately

cyclo(-DF-R-Nle-S-DF-R-Nle-S-) [Lex 2.3]
Change in level of secretion of TNF into the supernatant [1]: insufficient

cyclo(-DF-R-Σ-S-DF-R-Σ-S-) [Lex 2.1]
Change in level of secretion of TNF into the supernatant [1]: efficacy in terms of down-regulating the secretion of TNF

cyclo(-DF-S-Nle-R-DF-S-Nle-R-) [Lex 2.4]
Change in level of secretion of TNF into the supernatant [1]: insufficient

cyclo(-DF-S-Σ-R-DF-S-Σ-R-) [Lex 2.2]
Change in level of secretion of TNF into the supernatant [1]: efficacy in terms of down-regulating the secretion of TNF; also recorded: more efficacious

cyclo(DF-R-LC10-S-DF-R-LC10-S) [Lex 2.5]
Change in level of secretion of TNF into the supernatant [2]: strongly dose-related stimulatory activity

cyclo(DF-S-LC10-R-DF-S-LC10-R) [Lex 2.6]
Change in level of secretion of TNF into the supernatant [1]: inhibits secretion of TNF | Dependence of TNF down-regulating activity on cyclodextrin:peptide ratio ([2]; LPS-stimulated J774A.1 cells overnight, formulated with beta hydroxypropyl cyclodextrin at different weight ratios, down to 1.25 (molar ratio 1.3)): independent of the ratio of peptide to cyclodextrin | Change in level of secretion of TNF into the supernatant [2]: most efficacious structure tested; also recorded: inhibits secretion of TNF | Effect on TNF secretion of cells in the cognate assay ([3]; 10 µg/mL, formulated with cyclodextrin in the presence of transcutol (panel a), 18 h co-culture, ELISA): inhibitory activity is seen clearly | Inhibition of TNF secretion elicited by modified T-cell phenotype ([3]; summary statement): inhibits secretion of TNF | Effect on IL-6 secretion [4]: Clear dose-related inhibition of IL-6 secretion | Effect on IL-6 secretion [5]: reductions in IL-6 secretion | Cell metabolic activity (MTT test) [6]: no reduction in cell metabolic activity | Effect on levels of IL-1 [7]: No effect | Effect on levels of IL-10 [8]: No effect | Light scattering of the preparation (homogeneity) [9]: significant reduction in light scattering | Effect on TNF secretion by lymphocytes (lymphocytes): no effect on secretion by lymphocytes
